From patent publication US6576811B1, “Transgenic rat with human normal type c-Ha-ras gene” (National Cancer Center Research Institute, priority 1998, dated 2003)
“And” between values parts separate entries of the source, which are not always exact repeats. Identical values can stand only once. Marks after values point to notes of the source that are not given here.

How the values were obtained:
[1] = tested on: Hras128 rats; experiment: ENU-induced transplacental carcinogenesis in Hras128 (Tg 128) rats; assay type: in vivo, rat; conditions: for No. of tumor bearing rat/total No. of rat / Tumor incidence, CNS / Tumor incidence, kidney / Tumor incidence, mammary gland / Tumor incidence, papilloma / Tumor incidence, spleen: transplacental ENU
Procedure: (§1) The effects of transplacental administration of carcinogenic substances were examined in offsprings of females and males of Hras128 rats and wild rats.
(§2) Transplacental administration of ethylnitrosourea (ENU) was performed and incidence of tumors in many organs of the bearing rats are shown in Table 14.

[2] = tested on: wild rats; experiment: ENU-induced transplacental carcinogenesis in wild rats; assay type: in vivo, rat
Procedure: as §1, §2

[3] = tested on: Hras128 rats; experiment: MNU-induced mammary carcinogenesis in Hras128 transgenic rats; assay type: in vivo, rat
Procedure: (§3) MNU, at a dose of 50 mg/kg, was intravenously injected into Hras128 and wild type rats, at 50 days old, to perform histopathological examination of the incidence of mammary tumor and to screen the presence or absence of any point mutation of the transgene and endogenous c-Ha-ras gene.
(§4) Mammary tumor became palpable in the Hras128 strain rats, 5 weeks after MNU administration, and then multiple adenocarcinoma developed in all (100%) of the mammary glands of all the transgenic rats at week 8, but that in the wild type rats only 29.2% even at week 8 (see Table 1 and FIG. 2). In 102-strain rats, multiple adenocarcinoma was observed 16 weeks after MNU administration.

[4] = tested on: wild type rats (non Tg rats); experiment: MNU-induced mammary carcinogenesis in wild type rats (128 line); assay type: in vivo, rat; conditions: strain 128, 'MNU Treatment' cell '—' (wild type rats per text), week 8, 24 rats
Procedure: as §3, §4

[5] = tested on: Hras102 rats; experiment: MNU-induced mammary carcinogenesis in 102-strain transgenic rats; assay type: in vivo, rat
Procedure: as §3, §4

[6] = tested on: wild type rats (non Tg rats); experiment: MNU-induced mammary carcinogenesis in wild type rats (102 line); assay type: in vivo, rat; conditions: strain 102, 'MNU Treatment' cell '—' (probably wild rats), week 18, 13 rats
Procedure: as §3, §4

[7] = tested on: human c-Ha-ras proto-oncogene (transgene); experiment: Mutation analysis (RFLP, PCR-SSCP) of the transgene in carcinogen-induced tumors
From the text: Single-stranded DNA confirmation polymorphism (SSCP) analysis is able to be performed according to the followings; T. Sekiya. Protein, Nucleic Acid, Enzyme, vol.
Possible mutations in exons 1 to 4 of the human Ha-ras proto-oncogene and exons 1 and 2 of the endogenous gene were examined by PCR-SSCP analysis.
RFLP analysis is able to perform according to the followings; Nagase, et al., Protein, Nucleic Acid, Enzyme, vol.

[8] = tested on: endogenous Ha-ras gene (rat); experiment: Mutation analysis (PCR-SSCP) of the endogenous Ha-ras gene in carcinogen-induced tumors
From the text: Single-stranded DNA confirmation polymorphism (SSCP) analysis is able to be performed according to the followings; T. Sekiya. Protein, Nucleic Acid, Enzyme, vol. 41, No. 5, 539, 1996.
Possible mutations in exons 1 to 4 of the human Ha-ras proto-oncogene and exons 1 and 2 of the endogenous gene were examined by PCR-SSCP analysis. Using human or rat specific primers, only two bands appeared on the gals. With common primers (cHras21F and cHras21R) for Ha-ras exon 2 of both man and rats, four bands were detected. Human or rat specific bands were identified by signals from normal DNA of the transgenic and non-transgenic rats. DNA from T24 having a mutation in human Ha-ras of codon 12, GGC to GTC and that from pSK2 having a mutation in the codon 61, CAG to CTG, gave clearly mobility shifted bands in the assays (FIG. 4). However, a GGC to GAC mutation of the transgene enriched by PCR after RFLP analysis as described below, which was frequently observed in tumors induced by MNU in human Ha-ras proto-oncogene transgenic mice, could not be detected by SSCP -PCR analysis. In 44 tumors from Hras128 transgenic rats treated with MNU, mutations were not detected in exons 1 to 4 of the introduced human and endogenous c-Ha-ras genes under any of four SSCP conditions (at 4 or 20° C., with or without 5% glycerol) (Table 1). In contrast, a relatively high frequency (6 of 21 tumors of non-transgenic rats (28.6%) of GGA to GAA mutations in codon 12 of the endogenous Ha-ras gene was detected in mammary carcinomas of non-transgenic using PCR-SSCP analysis followed by direct sequencing (Table 1).

[9] = tested on: Hras128 rats; experiment: BBN-induced urinary bladder tumors in Hras128 rats; assay type: in vivo, rat
Procedure: (§5) In the same manner as in Example 2, 0.05% N-butyl-N-(4-hydroxybutyl)nitrosoamine (BBN) was administered mixed with drinking water to Hras128 rats and the wild type rats for 10 weeks, to induce bladder tumors. The incidences of bladder tumors (papillomas and carcinomas combined) are shown in Table 11, the mutation of the human c-Ha-ras proto-oncogene codons 12 and 61 and endogeneous rat H-ras shown in Table 12.

[10] = tested on: wild type rats; experiment: BBN-induced urinary bladder tumors in wild type rats; assay type: in vivo, rat; conditions: Wild female
Procedure: as §5

[11] = strain 128, MNU performed, 50 mg/kg i.v., week 8 after injection, 22 rats
[12] = strain 102, MNU performed, week 18 after injection, 23 rats
[13] = MNU-induced mammary tumors, Hras128, 44 tumors examined
[14] = MNU-induced mammary tumors, Hras128, 44 tumors examined, SSCP
[15] = Hras128 female, bladder papillomas and carcinomas combined, 20 rats
[16] = bladder papillomas and carcinomas combined, 15 rats
[17] = BBN-induced bladder tumors, Hras128, 27 tumors examined
[18] = BBN-induced bladder tumors, Wild, 17 tumors examined

CCN(N=O)C(N)=O [ENU, ethylnitrosourea]
No. of tumor bearing rat/total No. of rat ([1]; Tg 128 Female offspring): 6/9 | Tumor incidence, CNS ([1]; Tg 128 Female offspring): 3/9 | Tumor incidence, kidney ([1]; Tg 128 Female offspring): 2/9 | Tumor incidence, mammary gland ([1]; Tg 128 Female offspring): 5/9 | Tumor incidence, papilloma ([1]; Tg 128 Female offspring): 0 | Tumor incidence, spleen ([1]; Tg 128 Female offspring): 2/9 | No. of tumor bearing rat/total No. of rat ([1]; Tg 128 Male offspring): 8/15 | Tumor incidence, CNS ([1]; Tg 128 Male offspring): 6/15 | Tumor incidence, kidney ([1]; Tg 128 Male offspring): 6/15 | Tumor incidence, mammary gland ([1]; Tg 128 Male offspring): 4/15 | Tumor incidence, papilloma ([1]; Tg 128 Male offspring): 3/15 | Tumor incidence, spleen ([1]; Tg 128 Male offspring): 0/15 | Occurrence of tumors in the central nervous system, kidney, skin, etc. after trans-placental administration ([1]; transgenic rat, within a short period): significantly increases | No. of tumor bearing rat/total No. of rat ([2]; Wild 128 Female offspring): 0/7 | Tumor incidence, CNS ([2]; Wild 128 Female offspring): 0 | Tumor incidence, kidney ([2]; Wild 128 Female offspring): 0 | Tumor incidence, mammary gland ([2]; Wild 128 Female offspring): 0 | Tumor incidence, papilloma ([2]; Wild 128 Female offspring): 0 | Tumor incidence, spleen ([2]; Wild 128 Female offspring): 0 | No. of tumor bearing rat/total No. of rat ([2]; Wild 128 Male offspring): 2/6 | Tumor incidence, CNS ([2]; Wild 128 Male offspring): 2/6 | Tumor incidence, kidney ([2]; Wild 128 Male offspring): 0 | Tumor incidence, mammary gland ([2]; Wild 128 Male offspring): 0 | Tumor incidence, papilloma ([2]; Wild 128 Male offspring): 0 | Tumor incidence, spleen ([2]; Wild 128 Male offspring): 0

CN(N=O)C(N)=O [MNU, N-methyl-N-nitrosourea]
Mammary tumor became palpable, time after MNU administration ([3]; Hras128 rats, MNU 50 mg/kg i.v. at 50 days old): 5 weeks | Sensitivity of Tg rats to MNU-induced mammary carcinogenesis ([3]; Tg rats vs wild type): very sensitive | No. of tumor-bearing rats [3, 11]: 22 | No. of tumor/rat [3, 11]: 14.0 ± 6.42 | No. of tumor-bearing rats [4]: 7 | No. of tumor/rat [4]: 0.46 ± 0.93 | Multiple adenocarcinoma observed, time after MNU administration ([5]; 102-strain rats, MNU 50 mg/kg i.v.): 16 weeks | No. of tumor-bearing rats [5, 12]: 20 | No. of tumor-bearing rats (%) [5, 12]: (87.0) % | No. of tumor/rat [5, 12]: 5.83 ± 5.31 | No. of tumor-bearing rats [6]: 10 | No. of tumor-bearing rats (%) [6]: (76.9) % | No. of tumor/rat [6]: 3.00 ± 2.86 | Tumors with transgene exon 2 (codon 61) mutation, number [7, 13]: 0 | Tumors with transgene exon 3 mutation, number [7, 13]: 0 | Tumors with transgene exon 4 mutation, number [7, 13]: 0 | Tumors with endogenous (rat) exon 1 mutation, number [8, 14]: 0 | Tumors with endogenous (rat) exon 2 mutation, number [8, 14]: 0 | Tumors with endogenous (rat) exon 2 mutation, number ([8]; MNU-induced mammary tumors, Wild, 21 tumors examined, SSCP): 0

CCCCN(CCCCO)N=O [BBN, N-butyl-N-(4-hydroxybutyl)nitrosoamine]
Incidence of carcinomas (fraction) ([9]; Hras128 female, bladder): 11/14 | No. of tumor-bearing rats ([9]; Hras128 female, bladder papillomas and carcinomas combined, 0.05% BBN in drinking water 10 weeks, 20 rats): 19 | No. of tumor-bearing rats (%) [9, 15]: 95% | No. of tumors/rat [9, 15]: 13.2 ± 6.8^b | Incidence of carcinomas (figure in parentheses) ([9]; Hras128 female, bladder, percent sign not given): 35.3 | Sensitivity of the Hras128 rat to BBN carcinogenesis in the bladder ([9]; rat, in vivo): slightly elevated sensitivity | Incidence of carcinomas (fraction) ([10]; bladder): 4/13 | No. of tumor-bearing rats ([10]; bladder papillomas and carcinomas combined, 0.05% BBN in drinking water 10 weeks, 15 rats): 15 | No. of tumor-bearing rats (%) [10, 16]: 100% | No. of tumors/rat [10, 16]: 7.1 ± 5.2 | Incidence of carcinomas (figure in parentheses) ([10]; bladder, percent sign not given): 30.8 | Transgene codon 12 mutations, % [7, 17]: 7.4% | Transgene codon 61 mutations, number of tumors [7, 17]: 0 | Transgene mutations total, % [7, 17]: 7.4% | Transgene mutations total, number of tumors [7, 17]: 2 | Transgene codon 12 mutations, number of tumors ([7]; BBN-induced bladder tumors, Hras128, 27 tumors examined, GGC to GAC): 2/27 and 2 | Endogenous (rat) exon 1 mutations, number of tumors [8, 17]: 0 | Endogenous (rat) exon 2 mutations, number of tumors [8, 17]: 0 | Endogenous (rat) exon 1 mutations, % [8, 18]: 5.9% | Endogenous (rat) exon 2 mutations, number of tumors [8, 18]: 0 | Endogenous (rat) exon 1 mutations, number of tumors ([8]; BBN-induced bladder tumors, Wild, 17 tumors examined, GGA to GAA): 1/17 and 1
